Reference: PMC7393058, “Design, Synthesis, Molecular Modeling Study and Biological Evaluation of New N'-Arylidene-pyrido [2,3-d]pyrimidine-5-carbohydrazide Derivatives as Anti-HIV-1 Agents” (Iranian Journal of Pharmaceutical Research : IJPR, 2019)
Like-named read-outs stand apart in the source and are kept apart here. Blank lines part the entries; values can stand above or below the molecule they belong to.

How the values were obtained:
Hela cells = assay: XTT proliferation (cytotoxicity) assay; type: cell-based, human
Protocol: (§1) The evaluation of inhibitory effect of synthesized compounds was performed by single-round replication assay which was evaluated in our laboratory and reported previously ([34]-[40]). Briefly, Hela cells (6 × 10^3 per well of 96-wells plate) were incubated with single cycle replicable HIV NL4-3 virions (200 ng p24) in the presence of various concentrations of compounds which were added concurrently with viral infection. The supernatants were collected 72 h postinfection and evaluated for p24 antigen load by capture ELISA (Biomerieux, France). Percentage inhibition of p24 expression in the treated culture was calculated as inhibition rate of p24 (%). The 50% effective concentration (EC50) was determined for each compound. XTT proliferation method was performed to evaluate the cellular toxicity of compounds. Toxicities of the compounds against the cells were quantified using XTT (sodium 3-[1 (phenyl aminocarbonyl)-3,4-tetrazolium]-bis(4-methoxy-6-nitro)benzene sulfonic acid) reagent, according to the kit instruction (Roche, Germany) ([41], [42]). Concentration which reduces proliferation of 50% of cells (CC50) was calculated subsequent to determination of p24 load. For EC50 and CC50 determinations, the compounds were tested at six concentrations ([…]) in triplicates.
(§2) All new synthesized compounds were evaluated for their activity against single cycle replicable HIV NL4-3 by determining their ability to inhibit p24 expression in Hela cell cultures. The well-known nucleoside RT inhibitor (AZT) was assayed in the same cells for comparative purpose. They all were then subjected to cell based XTT colorimetric assay for cytotoxicity to ensure that the anti-HIV-1 activity of the compounds was not a result of their cytotoxic effects ([43], [44]). The biological results are expressed as EC50, CC50, and SI (selectivity index, given by the CC50/EC50 ratio). […] When comparing the anti-HIV-1 activity of tested compounds, it appeared that the presence of substituents on benzylidene fragment confers better inhibition than the unsubstituted counterparts (compound 5a, EC50 >[…]).

[1] = tested on: single cycle replicable HIV NL4-3; assay: single-round replication assay, inhibition of p24 expression (capture ELISA) in Hela cells; type: cell-based, HIV-1; conditions: for SI=CC50/EC50: selectivity index, CC50/EC50 ratio
Protocol: as §1, §2

[2] = XTT proliferation (cytotoxicity) assay; type: cell-based, human; conditions: human; XTT, Hela cells
Protocol: as §1, §2

[3] = Human immunodeficiency virus 1, NL43, HeLa, 72 h

melting point: 277 °C (dec.)
Compound: Cc1ccccc1C=NNC(=O)c1cc(=O)[nH]c2c1c(=O)n(C)c(=O)n2C

melting point: 220.7 to 221.3 °C
Compound: Cn1c(=O)c2c(C(=O)NN=Cc3ccc(F)cc3)cc(=O)[nH]c2n(C)c1=O

Compound: Cc1cn([C@H]2C[C@H](N=[N+]=[N-])[C@@H](CO)O2)c(=O)[nH]c1=O [AZT, reference compound]
CC50 (Hela cells): > 200 µM
EC50 ([1]; inhibition of p24 expression, Hela cells, 72 h postinfection, triplicates, read-out: EC50): 0.018 µM

Compound: Cn1c(=O)c2c(C(=O)NN=Cc3ccccc3)cc(=O)[nH]c2n(C)c1=O [Compound 5a, N’-benzylidene-1,3-dimethyl-2,4,7-trioxo-1,2,3,4,7,8-hexahydropyrido[2,3-d]pyrimidine-5-carbohydrazide]
CC50 at 72 h [2]: > 200 µM
EC50 [1, 3]: > 200 µM
SI=CC50/EC50 [1]: 1.2
melting point: 286 °C (dec.)

Compound: COc1ccccc1C=NNC(=O)c1cc(=O)[nH]c2c1c(=O)n(C)c(=O)n2C [Compound 5b, N’-(2-methoxybenzylidene)-1,3-dimethyl-2,4,7-trioxo-1,2,3,4,7,8-hexahydropyrido[2,3-d]pyrimidine-5-carbohydrazide]
CC50 at 72 h [2]: > 200 µM
EC50 [1, 3]: 120 µM
SI=CC50/EC50 [1]: 3.75
melting point: 231 °C (dec.)

Compound: COc1cccc(C=NNC(=O)c2cc(=O)[nH]c3c2c(=O)n(C)c(=O)n3C)c1 [Compound 5c, N’-(3-methoxybenzylidene)-1,3-dimethyl-2,4,7-trioxo-1,2,3,4,7,8-hexahydropyrido[2,3-d]pyrimidine-5-carbohydrazide]
CC50 at 72 h [2]: > 200 µM
EC50 [1, 3]: 180 µM
SI=CC50/EC50 [1]: 1.1
melting point: 231 °C (dec.)

Compound: COc1ccc(C=NNC(=O)c2cc(=O)[nH]c3c2c(=O)n(C)c(=O)n3C)cc1 [Compound 5d, N’-(4-methoxybenzylidene)-1,3-dimethyl-2,4,7-trioxo-1,2,3,4,7,8-hexahydropyrido[2,3-d]pyrimidine-5-carbohydrazide]
CC50 at 72 h [2]: 185 µM
EC50 [1, 3]: 140 µM
SI=CC50/EC50 [1]: 1.3
melting point: 231 °C (dec.)

Compound: Cn1c(=O)c2c(C(=O)NN=Cc3ccccc3Cl)cc(=O)[nH]c2n(C)c1=O [Compound 5e, N’-(2-chlorobenzylidene)-1,3-dimethyl-2,4,7-trioxo-1,2,3,4,7,8-hexahydropyrido[2,3-d]pyrimidine-5-carbohydrazide]
CC50 at 72 h [2]: > 200 µM
EC50 [1, 3]: 155 µM
SI=CC50/EC50 [1]: 2.4
melting point: 297 °C (dec.)

Compound: Cn1c(=O)c2c(C(=O)NN=Cc3cccc(Cl)c3)cc(=O)[nH]c2n(C)c1=O [Compound 5f, N’-(3-chlorobenzylidene)-1,3-dimethyl-2,4,7-trioxo-1,2,3,4,7,8-hexahydropyrido[2,3-d]pyrimidine-5-carbohydrazide]
CC50 at 72 h [2]: > 200 µM
EC50 [1, 3]: 120 µM
SI=CC50/EC50 [1]: 3.75
melting point: 302 °C (dec.)

Compound: Cn1c(=O)c2c(C(=O)NN=Cc3ccc(Cl)cc3)cc(=O)[nH]c2n(C)c1=O [Compound 5g, N’-(4-chlorobenzylidene)-1,3-dimethyl-2,4,7-trioxo-1,2,3,4,7,8-hexahydropyrido[2,3-d]pyrimidine-5-carbohydrazide]
CC50 at 72 h [2]: > 200 µM
EC50 [1, 3]: 110 µM
SI=CC50/EC50 [1]: 4.5
melting point: 305 °C (dec.)

Compound: Cc1cccc(C=NNC(=O)c2cc(=O)[nH]c3c2c(=O)n(C)c(=O)n3C)c1 [Compound 5i, 1,3-Dimethyl-N’-(3-methylbenzylidene)-2,4,7-trioxo-1,2,3,4,7,8-hexahydropyrido[2,3-d]pyrimidine-5-carbohydrazide]
CC50 at 72 h [2]: > 200 µM
EC50 [1, 3]: 125 µM
SI=CC50/EC50 [1]: 4.8
melting point: 280 °C (dec.)

Compound: Cc1ccc(C=NNC(=O)c2cc(=O)[nH]c3c2c(=O)n(C)c(=O)n3C)cc1 [Compound 5j, 1,3-Dimethyl-N’-(4-methylbenzylidene)-2,4,7-trioxo-1,2,3,4,7,8-hexahydropyrido[2,3-d]pyrimidine-5-carbohydrazide]
CC50 at 72 h [2]: > 200 µM
EC50 [1, 3]: 90 µM
melting point: 284 °C (dec.)

Compound: Cn1c(=O)c2c(C(=O)NN=Cc3cccc(F)c3)cc(=O)[nH]c2n(C)c1=O [Compound 5k, N’-(3-fluorobenzylidene)-1,3-dimethyl-2,4,7-trioxo-1,2,3,4,7,8-hexahydropyrido[2,3-d]pyrimidine-5-carbohydrazide]
CC50 at 72 h [2]: > 200 µM
EC50 [1, 3]: 140 µM
SI=CC50/EC50 [1]: 2.7
melting point: 287 °C (dec.)
